Experimental data taken from ChEMBL document CHEMBL3856264, “Discovery of novel 2',4'-dimethyl-[4,5'-bithiazol]-2-yl amino derivatives as orally bioavailable TRPV4 antagonists for the treatment of pain: Part 1” (Bioorg Med Chem Lett, 2016).
pIC50: −log10 of the molar value. Converted amounts (≈) assume the structure as drawn.

How the values were obtained:
[1] = molecular target: T1, Transient receptor potential cation channel subfamily V member 4 (Homo sapiens, UniProt Q9HBA0); assay: Antagonist activity at human recombinant TRPV4 expressed in CHO-K1 cells assessed as blockade of 1000 nM 4alphaPDD-induced calcium mobilization by FLIPR assay; format: cell-based
[2] = Stability in human liver microsomes assessed as compound remaining after 30 mins in presence or absence of NADPH generating system at 37 degC; format: ADME, microsome; settings: read-out: Stability
[3] = Aqueous solubility of compound in sodium phosphate buffer containing 1% DMSO at pH 6.8; format: physicochemical
[4] = Antagonist activity at guinea pig recombinant TRPV4 expressed in CHO-K1 cells assessed as blockade of 250 nM 4alphaPDD-induced calcium mobilization by FLIPR assay; format: cell-based; settings: Cavia porcellus
[5] = molecular target: Transient receptor potential cation channel subfamily V member 1 (Homo sapiens, UniProt Q8NER1); assay: Antagonist activity at human TRPV1 expressed in CHO cells assessed as blockade of 100 nM capsaicin-induced calcium mobilization by FLIPR assay; format: cell-based
[6] = Stability in guinea pig liver microsomes assessed as compound remaining after 30 mins in presence or absence of NADPH generating system at 37 degC; format: ADME, Cavia porcellus, microsome; settings: read-out: Stability
[7] = molecular target: T2, Cytochrome P450 1A2 (Homo sapiens, UniProt P05177); assay: Inhibition of CYP1A2 (unknown origin); format: ADME
T2 sequence (P05177 whole entry): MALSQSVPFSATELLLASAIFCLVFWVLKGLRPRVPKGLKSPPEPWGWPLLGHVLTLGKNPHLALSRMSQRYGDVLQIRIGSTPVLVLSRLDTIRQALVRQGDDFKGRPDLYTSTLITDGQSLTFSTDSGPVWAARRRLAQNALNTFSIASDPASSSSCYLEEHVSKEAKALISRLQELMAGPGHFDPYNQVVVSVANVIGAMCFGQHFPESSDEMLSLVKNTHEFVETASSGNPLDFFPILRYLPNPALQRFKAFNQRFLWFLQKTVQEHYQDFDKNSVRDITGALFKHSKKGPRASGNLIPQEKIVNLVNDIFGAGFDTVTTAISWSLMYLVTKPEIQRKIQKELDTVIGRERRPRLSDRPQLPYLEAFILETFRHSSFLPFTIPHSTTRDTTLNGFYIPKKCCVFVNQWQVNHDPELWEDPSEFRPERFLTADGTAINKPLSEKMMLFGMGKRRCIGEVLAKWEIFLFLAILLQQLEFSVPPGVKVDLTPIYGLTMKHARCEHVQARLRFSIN

[8] = molecular target: Cytochrome P450 2C19 (Homo sapiens, UniProt P33261); assay: Inhibition of CYP2C19 (unknown origin); format: ADME
[9] = molecular target: Cytochrome P450 2C9 (Homo sapiens, UniProt P11712); assay: Inhibition of CYP2C9 (unknown origin); format: ADME
[10] = molecular target: Cytochrome P450 2D6 (Homo sapiens, UniProt P10635); assay: Inhibition of CYP2D6 (unknown origin); format: ADME
[11] = molecular target: Cytochrome P450 3A4 (Homo sapiens, UniProt P08684); assay: Inhibition of CYP3A4 (unknown origin); format: ADME
[12] = Protein binding in guinea pig plasma; format: ADME, cell-free, Cavia porcellus; settings: read-out: PPB (converted)
[13] = molecular target: Voltage-gated inwardly rectifying potassium channel KCNH2 (Homo sapiens, UniProt Q12809); assay: Inhibition of human ERG
[14] = Total clearance in guinea pig at 0.5 mg/kg, iv; format: ADME, organism-based, Cavia porcellus; settings: in vivo
[15] = Half life in guinea pig at 0.5 mg/kg, iv; format: ADME, organism-based, Cavia porcellus; settings: in vivo
[16] = Volume of distribution at steady state in guinea pig at 0.5 mg/kg, iv; format: ADME, organism-based, Cavia porcellus; settings: in vivo, read-out: Vdss
[17] = Cmax in guinea pig at 1 mg/kg, po; format: ADME, organism-based, Cavia porcellus; set-up: dose 1 mg/kg, route oral; settings: in vivo
[18] = AUC in guinea pig at 1 mg/kg, po; format: ADME, organism-based, Cavia porcellus; settings: in vivo
[19] = Tmax in guinea pig at 1 mg/kg, po; format: ADME, organism-based, Cavia porcellus; settings: in vivo
[20] = Oral bioavailability in guinea pig at 1 mg/kg; format: ADME, organism-based, Cavia porcellus; settings: in vivo
[21] = test system: Cavia porcellus; assay: Analgesic activity in FCA-induced guinea pig mechanical hyperalgesia model assessed as reversal of mechanical hyperalgesia at 10 mg/kg, po after 1 hr (reference value: 1.6 +/- 3.4%); format: functional
[22] = test system: Cavia porcellus; assay: Analgesic activity in FCA-induced guinea pig mechanical hyperalgesia model assessed as reversal of mechanical hyperalgesia at 30 mg/kg, po after 1 hr (reference value: 1.6 +/- 3.4%); format: functional
[23] = Plasma concentration in FCA-induced guinea pig mechanical hyperalgesia model at 10 mg/kg, po after 1 hr; format: ADME, organism-based, Cavia porcellus
[24] = Plasma concentration in FCA-induced guinea pig mechanical hyperalgesia model at 30 mg/kg, po after 1 hr; format: ADME, organism-based, Cavia porcellus
[25] = test system: Salmonella typhimurium; assay: Genotoxicity in Salmonella typhimurium by Ames test; format: toxicity, organism-based; settings: salmonella enterica subsp. enterica serovar typhimurium
[26] = test system: CHO-K1; assay: Selectivity ratio of IC50 for guinea pig recombinant TRPV4 expressed in CHO-K1 cells to IC50 for human recombinant TRPV4 expressed in CHO-K1 cells; format: cell-based
[27] = molecular target: T1, Transient receptor potential cation channel subfamily V member 4; assay: Antagonist activity at human recombinant TRPV4 expressed in CHO-K1 cells assessed as blockade of hypotonic solution-induced calcium mobilization by FLIPR assay; format: cell-based

T1 sequence (Q9HBA0 whole entry): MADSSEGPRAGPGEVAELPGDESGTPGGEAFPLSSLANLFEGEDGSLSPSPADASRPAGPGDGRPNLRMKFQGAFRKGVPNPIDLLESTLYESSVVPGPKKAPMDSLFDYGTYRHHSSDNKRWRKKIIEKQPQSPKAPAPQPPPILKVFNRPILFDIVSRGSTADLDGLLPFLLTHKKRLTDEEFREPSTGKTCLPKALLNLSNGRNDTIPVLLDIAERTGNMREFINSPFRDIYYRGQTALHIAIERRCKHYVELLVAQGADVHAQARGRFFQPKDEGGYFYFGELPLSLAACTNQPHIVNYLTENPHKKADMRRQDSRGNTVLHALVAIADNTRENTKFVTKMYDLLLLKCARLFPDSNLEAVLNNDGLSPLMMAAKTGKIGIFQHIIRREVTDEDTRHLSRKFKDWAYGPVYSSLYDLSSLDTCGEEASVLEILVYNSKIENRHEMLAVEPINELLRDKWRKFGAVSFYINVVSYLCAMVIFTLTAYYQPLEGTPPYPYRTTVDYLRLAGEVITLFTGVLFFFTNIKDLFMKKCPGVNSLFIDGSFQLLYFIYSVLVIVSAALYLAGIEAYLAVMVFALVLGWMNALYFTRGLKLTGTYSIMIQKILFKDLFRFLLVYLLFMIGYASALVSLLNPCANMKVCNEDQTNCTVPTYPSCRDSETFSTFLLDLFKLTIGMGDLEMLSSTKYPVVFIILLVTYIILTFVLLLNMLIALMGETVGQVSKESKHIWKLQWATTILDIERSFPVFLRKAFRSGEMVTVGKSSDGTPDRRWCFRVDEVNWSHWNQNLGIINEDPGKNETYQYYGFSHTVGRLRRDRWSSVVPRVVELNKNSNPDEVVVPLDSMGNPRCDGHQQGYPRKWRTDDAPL
Sequence of Cytochrome P450 2C9 (P11712 whole entry): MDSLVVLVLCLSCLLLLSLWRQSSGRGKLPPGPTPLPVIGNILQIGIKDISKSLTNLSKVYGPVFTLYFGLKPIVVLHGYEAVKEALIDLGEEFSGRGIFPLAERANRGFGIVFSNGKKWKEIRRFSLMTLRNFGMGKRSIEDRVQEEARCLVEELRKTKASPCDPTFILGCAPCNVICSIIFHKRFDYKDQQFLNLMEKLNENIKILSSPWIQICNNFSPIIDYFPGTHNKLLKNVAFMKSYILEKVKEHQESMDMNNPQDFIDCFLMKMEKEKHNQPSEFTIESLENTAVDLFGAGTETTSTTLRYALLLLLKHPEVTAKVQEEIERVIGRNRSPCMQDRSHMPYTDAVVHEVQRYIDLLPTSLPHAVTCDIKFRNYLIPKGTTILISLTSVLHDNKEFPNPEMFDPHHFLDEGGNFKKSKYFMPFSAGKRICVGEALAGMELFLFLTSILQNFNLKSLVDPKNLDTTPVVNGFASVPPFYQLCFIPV
Sequence of Cytochrome P450 3A4 (P08684 whole entry): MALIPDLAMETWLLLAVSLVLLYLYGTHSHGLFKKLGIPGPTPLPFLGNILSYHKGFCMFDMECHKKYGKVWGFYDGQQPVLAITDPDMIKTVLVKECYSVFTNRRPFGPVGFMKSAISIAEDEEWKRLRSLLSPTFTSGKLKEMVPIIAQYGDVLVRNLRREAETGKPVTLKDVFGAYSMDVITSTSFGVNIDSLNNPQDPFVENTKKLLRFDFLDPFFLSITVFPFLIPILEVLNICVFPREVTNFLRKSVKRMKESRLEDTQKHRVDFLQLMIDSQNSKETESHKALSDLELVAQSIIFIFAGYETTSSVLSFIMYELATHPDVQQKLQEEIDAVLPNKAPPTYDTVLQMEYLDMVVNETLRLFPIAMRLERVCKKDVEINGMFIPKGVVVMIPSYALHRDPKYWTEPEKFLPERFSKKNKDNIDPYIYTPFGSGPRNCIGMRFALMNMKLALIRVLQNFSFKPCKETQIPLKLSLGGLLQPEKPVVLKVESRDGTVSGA
Sequence of Cytochrome P450 2C19 (P33261 whole entry): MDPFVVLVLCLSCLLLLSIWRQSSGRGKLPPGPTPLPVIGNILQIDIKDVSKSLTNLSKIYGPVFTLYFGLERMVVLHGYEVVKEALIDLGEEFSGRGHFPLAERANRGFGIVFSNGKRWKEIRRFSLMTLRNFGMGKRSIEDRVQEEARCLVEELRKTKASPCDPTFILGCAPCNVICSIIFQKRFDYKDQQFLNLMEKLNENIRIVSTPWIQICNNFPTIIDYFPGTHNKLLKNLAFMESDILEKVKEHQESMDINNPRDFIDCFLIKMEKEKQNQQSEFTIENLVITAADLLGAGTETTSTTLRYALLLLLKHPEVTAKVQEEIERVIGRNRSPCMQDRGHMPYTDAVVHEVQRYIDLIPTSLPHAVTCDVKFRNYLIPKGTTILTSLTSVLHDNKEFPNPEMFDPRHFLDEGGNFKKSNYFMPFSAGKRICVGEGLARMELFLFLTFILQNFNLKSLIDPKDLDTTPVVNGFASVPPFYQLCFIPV
Sequence of Transient receptor potential cation channel subfamily V member 1 (Q8NER1 whole entry): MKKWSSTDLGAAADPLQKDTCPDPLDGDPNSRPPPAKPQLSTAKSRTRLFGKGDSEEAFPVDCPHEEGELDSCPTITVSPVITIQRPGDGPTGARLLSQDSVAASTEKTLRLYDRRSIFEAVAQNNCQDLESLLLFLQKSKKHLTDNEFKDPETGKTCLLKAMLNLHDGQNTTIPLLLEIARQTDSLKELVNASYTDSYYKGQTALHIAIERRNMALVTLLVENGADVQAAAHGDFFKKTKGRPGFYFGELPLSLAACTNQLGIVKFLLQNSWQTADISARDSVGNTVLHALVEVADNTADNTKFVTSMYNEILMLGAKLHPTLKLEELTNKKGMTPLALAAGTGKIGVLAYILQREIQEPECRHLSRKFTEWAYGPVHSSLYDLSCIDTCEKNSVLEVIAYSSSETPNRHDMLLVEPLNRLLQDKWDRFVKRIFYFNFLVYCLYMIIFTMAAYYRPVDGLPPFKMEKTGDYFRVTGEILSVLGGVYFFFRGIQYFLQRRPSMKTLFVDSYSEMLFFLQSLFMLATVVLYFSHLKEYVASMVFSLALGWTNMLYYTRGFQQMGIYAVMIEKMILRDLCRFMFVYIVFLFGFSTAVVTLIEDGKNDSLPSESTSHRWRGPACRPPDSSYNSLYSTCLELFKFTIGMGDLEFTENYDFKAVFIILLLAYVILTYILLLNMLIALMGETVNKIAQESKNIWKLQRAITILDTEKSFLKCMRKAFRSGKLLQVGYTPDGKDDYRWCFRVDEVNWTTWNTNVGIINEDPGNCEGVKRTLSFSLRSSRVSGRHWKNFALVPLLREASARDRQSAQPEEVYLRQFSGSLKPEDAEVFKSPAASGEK
Sequence of Voltage-gated inwardly rectifying potassium channel KCNH2 (Q12809 whole entry): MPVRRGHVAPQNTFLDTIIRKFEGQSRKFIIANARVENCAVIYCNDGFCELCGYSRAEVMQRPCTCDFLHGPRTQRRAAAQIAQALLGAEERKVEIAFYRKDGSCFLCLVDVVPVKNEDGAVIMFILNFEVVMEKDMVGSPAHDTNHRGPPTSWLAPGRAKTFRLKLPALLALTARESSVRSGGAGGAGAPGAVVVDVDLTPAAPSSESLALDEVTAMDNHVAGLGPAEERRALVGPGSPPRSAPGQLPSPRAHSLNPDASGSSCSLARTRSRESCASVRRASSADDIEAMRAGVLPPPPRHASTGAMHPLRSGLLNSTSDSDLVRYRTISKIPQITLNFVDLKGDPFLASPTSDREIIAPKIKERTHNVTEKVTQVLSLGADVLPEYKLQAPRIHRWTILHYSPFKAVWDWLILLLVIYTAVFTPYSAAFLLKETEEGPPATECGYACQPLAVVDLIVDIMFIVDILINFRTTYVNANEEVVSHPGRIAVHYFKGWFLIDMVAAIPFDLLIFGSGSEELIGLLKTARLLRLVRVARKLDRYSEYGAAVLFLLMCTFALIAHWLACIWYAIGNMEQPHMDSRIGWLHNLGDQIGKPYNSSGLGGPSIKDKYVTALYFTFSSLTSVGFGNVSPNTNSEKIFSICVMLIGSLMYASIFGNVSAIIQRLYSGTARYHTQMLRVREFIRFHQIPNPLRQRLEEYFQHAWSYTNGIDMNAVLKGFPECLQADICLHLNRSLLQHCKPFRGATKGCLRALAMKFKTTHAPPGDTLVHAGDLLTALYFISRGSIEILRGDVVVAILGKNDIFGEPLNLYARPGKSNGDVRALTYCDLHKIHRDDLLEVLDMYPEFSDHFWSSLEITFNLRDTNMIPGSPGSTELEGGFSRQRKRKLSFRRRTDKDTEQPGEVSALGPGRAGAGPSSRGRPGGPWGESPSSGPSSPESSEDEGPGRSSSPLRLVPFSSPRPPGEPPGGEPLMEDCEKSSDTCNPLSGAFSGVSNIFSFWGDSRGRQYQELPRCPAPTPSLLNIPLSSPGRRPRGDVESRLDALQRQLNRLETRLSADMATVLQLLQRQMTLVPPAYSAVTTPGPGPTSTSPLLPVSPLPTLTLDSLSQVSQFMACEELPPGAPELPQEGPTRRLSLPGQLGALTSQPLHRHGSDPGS
Sequence of Cytochrome P450 2D6 (P10635 whole entry): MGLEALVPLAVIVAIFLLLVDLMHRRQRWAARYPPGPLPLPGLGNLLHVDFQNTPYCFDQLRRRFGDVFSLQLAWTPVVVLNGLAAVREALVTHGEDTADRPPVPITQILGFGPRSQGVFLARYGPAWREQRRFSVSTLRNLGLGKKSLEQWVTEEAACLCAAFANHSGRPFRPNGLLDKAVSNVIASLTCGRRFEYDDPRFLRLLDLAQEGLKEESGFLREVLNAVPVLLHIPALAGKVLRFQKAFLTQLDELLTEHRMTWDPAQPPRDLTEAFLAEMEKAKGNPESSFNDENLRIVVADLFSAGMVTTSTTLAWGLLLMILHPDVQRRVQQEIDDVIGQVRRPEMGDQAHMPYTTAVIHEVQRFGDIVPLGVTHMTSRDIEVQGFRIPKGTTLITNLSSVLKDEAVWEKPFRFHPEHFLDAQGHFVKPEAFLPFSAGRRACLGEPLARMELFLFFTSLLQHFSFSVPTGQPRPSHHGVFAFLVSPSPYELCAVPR

With `COc1ccc(Nc2nc(-c3sc(C)nc3C)cs2)nc1` the pIC50 [1] was 7.46 and the remaining at 0.5 h [2] was 10%.

Molecule `CCOC(=O)c1ccc(Nc2nc(-c3sc(C)nc3C)cs2)nc1` has a pIC50 [1] of 7.96, a remaining at 0.5 h [2] of 13.5% and a solubility [3] of 3.4 µM (≈ 1.23 µg/mL).

Work on `Cc1nc(C)c(-c2csc(Nc3ccc(C(=O)N4C(C)CC(=O)CC4C)cn3)n2)s1` (centres undefined) yielded a pIC50 [1] of 7.34, a remaining at 0.5 h [2] of 52.8% and a solubility [3] of 45 µM (≈ 19.9 µg/mL).

Molecule `Cc1nc(C)c(-c2csc(Nc3ccc(NC(=O)c4ccc(Cl)cc4)cn3)n2)s1` has a pIC50 [1] of less than 5.00, a remaining at 0.5 h [2] of 65.2% and a solubility [3] of 3.9 µM (≈ 1.72 µg/mL).

Molecule `COc1cccnc1Nc1nc(-c2sc(C)nc2C)cs1` has a pIC50 [1] of less than 5.00 and a remaining at 0.5 h [2] of 30.9%.

With `Cc1nc(C)c(-c2csc(Nc3ccc(NS(=O)(=O)c4ccc(Cl)cc4)cn3)n2)s1` the pIC50 [1] was 6.62, the remaining at 0.5 h [2] was 81.5% and the solubility [3] was 1.2 µM (≈ 0.574 µg/mL).

For `Cc1nc(C)c(-c2csc(Nc3ccc(C(=O)O)cn3)n2)s1`, the pIC50 [1] was less than 5.00, the remaining at 0.5 h [2] was 100% and the solubility [3] was greater than 50 µM.

With `Cc1nc(C)c(-c2csc(Nc3ccc(C(=O)N(C)c4ccc(Cl)cc4)cn3)n2)s1` the pIC50 [1] was 7.30, the remaining at 0.5 h [2] was 53.6% and the solubility [3] was 1.4 µM (≈ 0.638 µg/mL).

Work on `Cc1nc(C)c(-c2csc(Nc3cccc(C#N)n3)n2)s1` yielded a pIC50 [1] of 7.00 and a remaining at 0.5 h [2] of 66.4%.

Work on `CCNC(=O)c1ccc(Nc2nc(-c3sc(C)nc3C)cs2)nc1` yielded a pIC50 [1] of less than 5.00, a remaining at 0.5 h [2] of 81.4% and a solubility [3] of 2.8 µM (≈ 1.01 µg/mL).

With `Cc1nc(C)c(-c2csc(Nc3ccc(C(=O)Nc4ccc(Cl)cc4)cn3)n2)s1` the pIC50 [1] was 8.02, the remaining at 0.5 h [2] was 54.6% and the solubility [3] was 10.6 µM (≈ 4.68 µg/mL).

Molecule `COc1cccc(Nc2nc(-c3sc(C)nc3C)cs2)n1` has a pIC50 [1] of 7.64 and a remaining at 0.5 h [2] of 40%.

With `Cc1nc(C)c(-c2csc(Nc3ccc(C(=O)N4CCCCC4)cn3)n2)s1` the pIC50 [1] was 7.43, the remaining at 0.5 h [2] was 74.5% and the solubility [3] was 0.8 µM (≈ 0.32 µg/mL).

Molecule `Cc1nc(C)c(-c2csc(Nc3ccc(C(=O)N4C(C)CCCC4C)cn3)n2)s1` (centres undefined) has a pIC50 [1] of 8.20, a remaining at 0.5 h [2] of 2.1% and a solubility [3] of less than 0.1 µM.

Work on `Cc1nc(C)c(-c2csc(Nc3cccnc3)n2)s1` yielded a pIC50 [1] of 6.31 and a remaining at 0.5 h [2] of 39.5%.

`Cc1nc(C)c(-c2csc(Nc3ccc(C(=O)NC4CCCCC4)cn3)n2)s1` gave a pIC50 [1] of 7.54, a remaining at 0.5 h [2] of 55% and a solubility [3] of 1.8 µM (≈ 0.744 µg/mL).

`Cc1nc(C)c(-c2csc(Nc3ncccc3C#N)n2)s1` gave a pIC50 [1] of 5.37 and a remaining at 0.5 h [2] of 1.3%.

With `Cc1nc(C)c(-c2csc(Nc3ccccc3)n2)s1` the pIC50 [1] was 7.51 and the remaining at 0.5 h [2] was 22.8%.

Molecule `Cc1nc(C)c(-c2csc(Nc3cc(C#N)ccn3)n2)s1` has a pIC50 [1] of 6.62 and a remaining at 0.5 h [2] of 2.8%.

Molecule `COc1ccnc(Nc2nc(-c3sc(C)nc3C)cs2)c1` has a pIC50 [1] of 6.39 and a remaining at 0.5 h [2] of 0.7%.

With `Cc1nc(C)c(-c2csc(Nc3ccc(C#N)cn3)n2)s1` the pIC50 [1] was 7.66, the remaining at 0.5 h [2] was 65% and the solubility [3] was 1.7 µM (≈ 0.533 µg/mL).

For `Cc1nc(C)c(-c2csc(Nc3ccc(C(=O)N4CCC(=O)CC4)cn3)n2)s1`, the pIC50 [1] was 6.21, the remaining at 0.5 h [2] was 1.4% and the solubility [3] was greater than 50 µM.

Molecule `Cc1nc(C)c(-c2csc(Nc3ccc(C(=O)N4C5CCC4CC(=O)C5)cn3)n2)s1` has a remaining at 0.5 h [2] of 81% and a solubility [3] of 46.4 µM (≈ 20.4 µg/mL).

Molecule `Cc1nc(C)c(-c2csc(Nc3ccc(Br)cc3)n2)s1` has a pIC50 [1] of 7.47 and a remaining at 0.5 h [2] of 86.4%.

Molecule `Cc1nc(C)c(-c2csc(Nc3ccc(C(=O)N4C5COCC4CC(=O)C5)cn3)n2)s1` has a remaining at 0.5 h [2] of 100%, a solubility [3] greater than 50 µM and a pIC50 [4] of 7.57. The pIC50 [5] was less than 5.00, the remaining at 0.5 h [6] was 84% and the INH [7] was greater than 20 µM. For the same molecule, the INH [8] was greater than 20 µM, the INH [9] was greater than 20 µM and the INH [10] was greater than 20 µM. The INH [11] was greater than 20 µM, the fraction unbound [12] was 0.1 and the pIC50 [13] was less than 4.52. The clearance [14] was 2.23 L/h/kg, the half-life [15] was 66 min and the Vd [16] was 2.5 L/kg. For the same molecule, the Cmax [17] was 0.0592 µg/mL, the AUC [18] was 0.2 µg·h/mL and the Tmax [19] was 30 min. For the same molecule, the bioavailability [20] was 38.6%, the Activity [21] was 30.8% and the Activity [22] was 45.6%. For the same molecule, the concentration at 1 h [23] was 0.515 µg/mL, the concentration at 1 h [24] was 1.94 µg/mL and the Activity [25] was “Non-Toxic”. The Ratio IC50 [26] was 1.4 and the pIC50 [27] was 8.51.

In the case of `Cc1nc(C)c(-c2csc(Nc3ncccn3)n2)s1`, the pIC50 [1] was 5.00 and the remaining at 0.5 h [2] was 0.3%.

For `Cc1nc(C)c(-c2csc(Nc3ccccn3)n2)s1`, the pIC50 [1] was 8.00 and the remaining at 0.5 h [2] was 1.1%.

Work on `Cc1nc(C)c(-c2csc(Nc3ccc(S(=O)(=O)Nc4ccc(Cl)cc4)cn3)n2)s1` yielded a pIC50 [1] of 6.54, a remaining at 0.5 h [2] of 83.4% and a solubility [3] of 4.5 µM (≈ 2.15 µg/mL).

Work on `Cc1nc(C)c(-c2csc(Nc3ccncc3)n2)s1` yielded a pIC50 [1] of 5.48 and a remaining at 0.5 h [2] of 17.8%.

Molecule `Cc1nc(C)c(-c2csc(Nc3ccc(C(=O)NCc4ccc(Cl)cc4)cn3)n2)s1` has a pIC50 [1] of 6.70, a remaining at 0.5 h [2] of 50.8% and a solubility [3] of 2.5 µM (≈ 1.14 µg/mL).
